Test results taken from US9216183B2, “Topical treatment for chemotherapy induced eyelash loss or hypotrichosis using prostamide F2 alpha agonists” (ALLERGAN, INC., priority 2002, dated 2015).
Entries after “also recorded” stand apart in the source; their conditions may differ.

Assays:
[1] = Safety, overall study population (adverse events, ophthalmic examination, IOP, iris color); type: in vivo, human
Description: Safety measures included adverse events (AEs), ophthalmic examination (ophthalmoscopy [dilated], biomicroscopy, IOP, iris color assessment, and BCVA). AEs were monitored throughout the study by the investigator.
The 12-month data were the primary focus of the safety evaluation. Safety data were summarized with descriptive statistics (n, or frequency distributions [counts or percentages]). Biomicroscopic examinations and assessments of iris color, IOP, and BCVA were performed for each subject at screening/baseline and months 1, 2, 4, 6, 8, and 12 (or early termination prior to month 12); ophthalmoscopic examinations (dilated) were performed at screening/baseline and months 6 and 12 (or early termination prior to month 12). Two IOP measurements were taken for each eye at each visit; a third measurement was taken if the difference between the first 2 measurements was more than 2 mm Hg. The average or median IOP was determined in the event that 2 or 3 measurements were made, respectively. The IOP value analyzed at each visit was the average IOP of the subject's 2 eyes. Change and percent change from baseline in IOP were summarized by descriptive statistics. Between-group comparison will be performed using the 1-way analysis of variance.
Iris color assessments were performed using a 10-category subjective classification: blue, blue-gray, blue/gray-brown, gray, green, green-brown, hazel, brown, dark brown, and other.

[2] = tested on: eyelashes of subjects with idiopathic hypotrichosis; assay: Digital image analysis of upper eyelash length, thickness, darkness, idiopathic hypotrichosis; type: in vivo, human; conditions: for Upper eyelash length, mean % change from baseline / Upper eyelash length, mean value / Upper eyelash thickness, mean % change from baseline / Upper eyelash thickness, mean value / Upper eyelash darkness, mean % change from baseline / Upper eyelash darkness, mean value: Bim/Veh group (n = 60); for Upper eyelash darkness, mean % change from baseline / Upper eyelash darkness, mean percent change from baseline: negative = darker; for Upper eyelash darkness, mean value: scale 0 black to 255 white
Description: Secondary efficacy measures were based on digital image analysis (DIA) of eyelash characteristics: upper eyelash length (millimeters [mm]), thickness (mm^2), and darkness (intensity units). For darkness, a negative value in terms of change from baseline indicated darker eyelashes. Upper eyelash characteristics of length, thickness, and darkness were determined by a validated DIA method. The reliability and reproducibility of DIA have been verified within the acceptance criteria of 0.05% or less of mean coefficient of variance. The principal variables for the secondary efficacy assessments are: change from baseline in upper eyelash length (mm), average progressive eyelash thickness (mm^2), and eyelash darkness (intensity units) at months 4, 6, 10, and 12 or early termination. Descriptive statistics of the raw value at baseline and percent change from baseline at follow-up visits were summarized by treatment group for each principal measure of the 3 secondary variables of eyelash characteristics. Between-group comparisons were performed using a van Elteren test stratified by hypotrichosis etiology.

[3] = overall population during bimatoprost treatment periods
[4] = subjects treated with bimatoprost, 10-category scale
[5] = Month 10 (vehicle since month 6)
[6] = Month 12 (vehicle since month 6)
[7] = Month 4, all bimatoprost TP1 (n = 179)
[8] = Month 4, all bimatoprost TP1 (n = 179), listed as Bimatoprost
[9] = Month 6, all bimatoprost TP1 (n = 179)
[10] = Month 6, group treated up to 12 months with bimatoprost
[11] = Month 12, group treated up to 12 months with bimatoprost

Structure (SMILES): CCNC(=O)CCC/C=C\C[C@@H]1[C@@H](/C=C/[C@@H](O)CCc2ccccc2)[C@H](O)C[C@@H]1O [Bim 0.03%, bimatoprost]
- 1-category change in iris hyperpigmentation reported as an AE ([1]; about 2 months after discontinuation of bimatoprost and initiation of vehicle, mild): 1 subject
- Greatest magnitude of mean change from baseline IOP ([1]; any time point, any group): less than 2 mm Hg
- Subjects with biomicroscopy and ophthalmoscopy findings of at least a 2-severity grade increase from baseline ([1]; bimatoprost 0.03% followed by vehicle (6-month treatment period)): 5.0%
- Subjects with biomicroscopy and ophthalmoscopy findings of at least a 2-severity grade increase from baseline ([1]; bimatoprost during both treatment periods (12-month treatment period)): 4.2%
- Drug-related serious adverse events ([1]; both subpopulations, 12-month study): No drug-related serious adverse events were reported; also recorded: no serious AEs attributed to study treatment
- Conjunctival hyperaemia [1, 3]: 12.1%
- Erythema [1, 3]: 4.2%
- Eyelid pruritus [1, 3]: 4.7%
- Punctuate keratitis [1, 3]: 5.6%
- 1- to 2-category iris color change from dark to light [1, 4]: 6 subjects
- 1-category iris color change from light to dark [1, 4]: 5 subjects
- Subjects with biomicroscopy and ophthalmoscopy findings of at least a 2-severity grade increase from baseline ([1]; vehicle followed by bimatoprost (6-month treatment period)): 2.4%
- Subjects discontinued due to a treatment-related AE ([1]; whole study (study treatment), all in idiopathic subpopulation): 2.8%
- Enophthalmos leading to treatment discontinuation ([1]; whole study, mild/moderate): 1 subject
- Upper eyelash length, mean % change from baseline ([2]; Month 4 (on bimatoprost)): 21.01%
- Upper eyelash length, mean value ([2]; Month 4 (on bimatoprost)): 6.8 mm
- Upper eyelash thickness, mean % change from baseline ([2]; Month 4 (on bimatoprost)): 73.7%
- Upper eyelash thickness, mean value ([2]; Month 4 (on bimatoprost)): 1.2 mm^2
- Upper eyelash darkness, mean % change from baseline ([2]; Month 4 (on bimatoprost)): −16.01%
- Upper eyelash darkness, mean value ([2]; Month 4 (on bimatoprost)): 126.3 intensity units
- Upper eyelash length, mean % change from baseline ([2]; Month 6 (on bimatoprost)): 25.70%
- Upper eyelash length, mean value ([2]; Month 6 (on bimatoprost)): 7.1 mm
- Upper eyelash thickness, mean % change from baseline ([2]; Month 6 (on bimatoprost)): 79.9%
- Upper eyelash thickness, mean value ([2]; Month 6 (on bimatoprost)): 1.2 mm^2
- Upper eyelash darkness, mean % change from baseline ([2]; Month 6 (on bimatoprost)): −14.89%
- Upper eyelash darkness, mean value ([2]; Month 6 (on bimatoprost)): 128.0 intensity units
- Upper eyelash length, mean % change from baseline [2, 5]: 6.46%
- Upper eyelash length, mean value [2, 5]: 6.0 mm
- Upper eyelash thickness, mean % change from baseline [2, 5]: 13.0%
- Upper eyelash thickness, mean value [2, 5]: 0.8 mm^2
- Upper eyelash darkness, mean % change from baseline [2, 5]: −3.97%
- Upper eyelash darkness, mean value [2, 5]: 143.7 intensity units
- Upper eyelash length, mean % change from baseline [2, 6]: 4.62%
- Upper eyelash length, mean value [2, 6]: 5.9 mm
- Upper eyelash thickness, mean % change from baseline [2, 6]: 15.9%
- Upper eyelash thickness, mean value [2, 6]: 0.9 mm^2
- Upper eyelash darkness, mean % change from baseline [2, 6]: −4.29%
- Upper eyelash darkness, mean value [2, 6]: 143.6 intensity units
- Upper eyelash length, mean percent change from baseline [2, 7]: 22.90%
- Upper eyelash thickness, mean percent change from baseline [2, 7]: 95.90%
- Upper eyelash length, mean percent change from baseline [2, 8]: 22.9 (177) %
- Upper eyelash thickness, mean percent change from baseline [2, 8]: 95.9 (150) %
- Upper eyelash darkness, mean percent change from baseline [2, 7]: −15.70%
- Upper eyelash darkness, mean percent change from baseline [2, 8]: −15.7 (150) %
- Upper eyelash length, mean percent change from baseline [2, 9]: 26.0 (177) %
- Upper eyelash thickness, mean percent change from baseline [2, 9]: 91.4 (150) %
- Upper eyelash darkness, mean percent change from baseline [2, 9]: −14.1 (150) %
- Eyelash length, mean percent increase from baseline [2, 10]: 26.17%
- Eyelash length, median percent increase from baseline [2, 10]: 22.4%
- Increase in mean eyelash length from baseline [2, 10]: 1.44 mm
- Eyelash length, mean percent increase from baseline [2, 11]: 25.86%
- Eyelash length, median percent increase from baseline [2, 11]: 22.63%
